Results: paper PMC12472888 (Molecules, 2025)

Legend:
Format in all cases: biochemical
[1] = target: T1, lipoxygenase type I-B from soybean (Glycine max, UniProt P08170); assay: UV absorbance at […] nm, linoleate oxidation
T1 construct: gene LOX1.1; commercial native soybean enzyme (Sigma type I-B), full length
T1 sequence (P08170 1-839): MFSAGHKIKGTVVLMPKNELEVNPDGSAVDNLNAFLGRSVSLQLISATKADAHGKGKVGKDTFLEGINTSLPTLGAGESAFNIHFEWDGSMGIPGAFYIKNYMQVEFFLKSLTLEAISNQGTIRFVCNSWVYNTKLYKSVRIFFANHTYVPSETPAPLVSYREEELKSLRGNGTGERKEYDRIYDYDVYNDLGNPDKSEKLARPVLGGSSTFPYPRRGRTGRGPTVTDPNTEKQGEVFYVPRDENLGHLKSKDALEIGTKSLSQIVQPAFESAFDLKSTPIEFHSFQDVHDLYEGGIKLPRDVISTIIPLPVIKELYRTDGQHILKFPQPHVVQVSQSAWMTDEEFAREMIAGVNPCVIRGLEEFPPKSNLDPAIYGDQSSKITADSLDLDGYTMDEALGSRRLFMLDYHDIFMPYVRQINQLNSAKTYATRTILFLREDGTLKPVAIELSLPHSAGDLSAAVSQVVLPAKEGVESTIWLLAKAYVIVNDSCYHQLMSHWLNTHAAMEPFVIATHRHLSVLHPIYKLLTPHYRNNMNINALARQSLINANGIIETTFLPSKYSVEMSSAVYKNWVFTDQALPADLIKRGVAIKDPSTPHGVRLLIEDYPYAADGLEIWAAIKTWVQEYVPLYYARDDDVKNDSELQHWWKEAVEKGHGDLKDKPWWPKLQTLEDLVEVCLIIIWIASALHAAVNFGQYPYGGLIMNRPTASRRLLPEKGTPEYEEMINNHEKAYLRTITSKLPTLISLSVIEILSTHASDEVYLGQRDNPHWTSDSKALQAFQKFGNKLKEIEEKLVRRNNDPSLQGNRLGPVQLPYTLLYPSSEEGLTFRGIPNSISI

ovine COX-1 = target: T2, ovine COX-1 (Ovis aries, UniProt P05979); assay: Cayman COX inhibitor screening kit, prostanoid enzyme immunoassay
T2 construct: gene PTGS1; homodimer
T2 sequence (P05979 25-600): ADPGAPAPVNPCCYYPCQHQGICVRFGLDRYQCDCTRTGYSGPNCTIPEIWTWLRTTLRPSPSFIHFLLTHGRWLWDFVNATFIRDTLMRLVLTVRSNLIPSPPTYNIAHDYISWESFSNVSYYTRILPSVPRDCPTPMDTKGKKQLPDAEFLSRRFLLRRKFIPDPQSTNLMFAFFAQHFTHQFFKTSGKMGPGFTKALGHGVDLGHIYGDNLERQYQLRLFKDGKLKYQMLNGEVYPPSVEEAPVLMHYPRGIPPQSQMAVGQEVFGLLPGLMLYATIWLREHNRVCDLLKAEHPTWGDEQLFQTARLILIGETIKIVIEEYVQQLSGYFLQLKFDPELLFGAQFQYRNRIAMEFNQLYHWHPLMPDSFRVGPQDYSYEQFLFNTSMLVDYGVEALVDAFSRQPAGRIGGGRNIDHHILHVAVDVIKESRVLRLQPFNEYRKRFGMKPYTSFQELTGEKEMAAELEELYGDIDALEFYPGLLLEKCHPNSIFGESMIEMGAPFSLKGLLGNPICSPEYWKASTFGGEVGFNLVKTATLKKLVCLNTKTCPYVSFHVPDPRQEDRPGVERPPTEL
Source text: Cayman COX inhibitor screening kit, prostanoid enzyme immunoassay on ovine COX-1

human recombinant COX-2 = target: T3, human recombinant COX-2 (Homo sapiens, UniProt P35354); assay: as above
T3 construct: gene PTGS2; homodimer; docking used mouse COX-2 (not this entry)
T3 sequence (P35354 18-604): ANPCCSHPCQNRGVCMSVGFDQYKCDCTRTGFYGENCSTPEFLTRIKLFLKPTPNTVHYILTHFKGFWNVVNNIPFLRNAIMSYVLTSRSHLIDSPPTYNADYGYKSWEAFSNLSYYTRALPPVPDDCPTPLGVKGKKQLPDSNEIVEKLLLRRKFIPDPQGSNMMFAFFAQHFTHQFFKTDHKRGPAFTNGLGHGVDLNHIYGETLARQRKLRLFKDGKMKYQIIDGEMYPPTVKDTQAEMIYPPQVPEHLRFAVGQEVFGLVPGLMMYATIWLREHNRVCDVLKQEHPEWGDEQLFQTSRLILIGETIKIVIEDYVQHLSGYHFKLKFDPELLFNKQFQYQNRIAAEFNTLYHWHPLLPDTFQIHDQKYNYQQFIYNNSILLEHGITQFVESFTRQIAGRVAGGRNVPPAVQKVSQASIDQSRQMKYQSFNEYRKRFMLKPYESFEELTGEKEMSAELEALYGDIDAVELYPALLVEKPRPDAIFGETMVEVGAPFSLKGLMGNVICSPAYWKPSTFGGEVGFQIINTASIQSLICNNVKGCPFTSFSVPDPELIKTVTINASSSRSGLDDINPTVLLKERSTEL
Source text: Cayman COX inhibitor screening kit, prostanoid enzyme immunoassay on human recombinant COX-2

Structure (SMILES) | IC50 [1] | inhibition at 0.05 µM (ovine COX-1) | inhibition at 0.05 µM (human recombinant COX-2)
CC(C)Cc1ccc(C(C)C(=O)N2CCC[C@H]2C(=O)OCCO[N+](=O)[O-])cc1 (stereo partly shown) [compound 6, 2-(Nitrooxy)ethyl-1-(2-(4-isobutylphenyl)propanoyl)pyrrolidine-2-carboxylate] | 264 µM | – | –
COc1ccc2cc([C@H](C)C(=O)NCCC(=O)OCCO)ccc2c1 [compound 9, 2-Hydroxyethyl 3-(2-(6-methoxynaphthalen-2-yl)propanamido)propanoate] | – | 73% | –

Further compounds by falling IC50 [1], results first:

IC50 [1] | inhibition at 0.05 µM (ovine COX-1) | inhibition at 0.05 µM (human recombinant COX-2) | Structure (SMILES)
184 µM | – | – | COc1ccc2cc([C@H](C)C(=O)N3CCC[C@H]3C(=O)OCCO[N+](=O)[O-])ccc2c1 [compound 8, 2-(Nitrooxy)ethyl-1-(2-(6-methoxynaphthalen-2-yl)propanoyl)pyrrolidine-2-carboxylate]
78 µM | 67% | 95% | CC(C)Cc1ccc(C(C)C(=O)NCCC(=O)OCCO[N+](=O)[O-])cc1 (racemic) [compound 5, 2-(Nitrooxy)ethyl-3-(2-(4-isobutylphenyl)propanamido)propanoate]
51 µM | – | – | COc1ccc2cc([C@H](C)C(=O)NCCC(=O)OCCO[N+](=O)[O-])ccc2c1 [compound 7, 2-(Nitrooxy)ethyl-3-(2-(6-methoxynaphthalen-2-yl)propanamido)propanoate]
